Measurements: ChEMBL document CHEMBL1130444, “Inhibitory effects of pentamidine analogues on spermine stimulated ligand binding to the NMDA receptor complex” (Bioorg Med Chem Lett, 1997)
“And” between values parts separate entries of the source, which are not always exact repeats. Identical values can stand only once.

Legend:
[1] = target: T1, Glutamate NMDA receptor (Rattus norvegicus) (UniProt P35439+Q00959+Q00960+Q00961+Q62645+Q8VHN2+Q9R1M7); test: Effect of spermine on the inhibition of [3H]MK-801 binding to the NMDA receptor TRIS acetate, pH 7; assay type: protein-complex assay
[2] = target: Glutamate NMDA receptor; test: Inhibition of [3H]MK-801 binding to the NMDA receptor of rat hippocampal membranes, measured in buffer containing 20 mM TRIS acetate, pH 7; assay type: cell membranes, Membrane
[3] = target: T1, Glutamate NMDA receptor (Rattus norvegicus); test: Hill coefficient for binding to NMDA receptor in TRIS acetate pH 7; assay type: protein-complex assay
[4] = target: T1, Glutamate NMDA receptor (Rattus norvegicus); test: Effect of spermine on the inhibition of [3H]-MK-801 binding to the NMDA receptor TRIS acetate, pH 7; assay type: protein-complex assay
[5] = target: Glutamate NMDA receptor; test: Inhibition of [3H]MK-801 binding to the NMDA receptor of rat hippocampal membranes, measured in buffer containing 50 mM TRIS acetate, pH 7; assay type: cell membranes, Membrane
[6] = target: T1, Glutamate NMDA receptor (Rattus norvegicus); test: Hill coefficient for binding to NMDA receptor; assay type: protein-complex assay
[7] = target: Glutamate NMDA receptor; test: Inhibition of [3H]MK-801 binding to NMDA receptor in 50 mM TRIS acetate pH 7; assay type: protein-complex assay, Rattus norvegicus
[8] = target: T1, Glutamate NMDA receptor (Rattus norvegicus); test: Effect of spermine on the inhibition of [3H]MK-801 binding to the NMDA receptor at 100 TRIS acetate, pH 7; assay type: protein-complex assay
[9] = target: T1, Glutamate NMDA receptor (Rattus norvegicus); test: Effect of spermine on inhibition of [3H]MK-801 binding to NMDA receptor at 100 TRIS acetate, pH 7; assay type: protein-complex assay

Structure (SMILES)	Increase in IC50 [1]	IC50 [2]	nH [3]	Increase in IC50 [4]	IC50 [5]	nH [6]	IC50 [7] [µM]	Increase in IC50 [8]	Increase in IC50 [9]
COc1cc(C(=N)N)ccc1OC/C=C\COc1ccc(C(=N)N)cc1OC	4.7 and 4.5	50 µM and 62 µM	2.14 and 1		95 µM	1.21 and 1.46	73	1.72 and 2.87	
COc1cc(C2=NCCN2)ccc1OC/C=C/COc1ccc(C2=NCCN2)cc1OC	12.7 and 13.8	35 µM and 33 µM	1.09 and 1.16		63 µM	1.04 and 0.96	83	4.24 and 3.79	
C(=C/COc1ccc(C2=NCCN2)cc1)/COc1ccc(C2=NCCN2)cc1	9.9 and 12.1	18.8 µM and 15.9 µM	0.99	5.48	26.7 µM	1.21			
C(=C\COc1ccc(C2=NCCN2)cc1)/COc1ccc(C2=NCCN2)cc1	15.3 and 12.7	13.1 µM and 13.8 µM	0.98 and 0.81	4.14	38 µM and 37 µM	0.95 and 0.87			4.88
COc1cc(C(=N)N)ccc1OC/C=C/COc1ccc(C(=N)N)cc1OC	14.3 and 12.2	12 µM and 12.6 µM	1.28 and 1.21		31 µM and 26.4 µM	1.19		2.87 and 4.15	
N=C(N)c1ccc(OC[C@@H](O)[C@H](O)COc2ccc(C(=N)N)cc2)cc1	28.4 and 22.4	24.8 µM and 22.6 µM	1.23 and 1.08	9.3	66 µM	1.04 and 1.09		8.1	
COc1cc(C2=NCCN2)ccc1OC/C=C\COc1ccc(C2=NCCN2)cc1OC	7.8 and 8.6	26.5 µM and 23.3 µM	1.33 and 1.15	4.62 and 3.43	32.6 µM and 49 µM	1.13 and 1.29			

Results, then the compound that gave them:

Increase in IC50 [1]	IC50 [2]	nH [3]	Increase in IC50 [4]	IC50 [5]	nH [6]	IC50 [7] [µM]	Increase in IC50 [8]	Increase in IC50 [9]	Structure (SMILES)
30.7 and 21.4	1.31 µM and 1.74 µM	0.93	9.5	3.06 µM	1.17 and 1.15				N=C(N)c1ccc(OCCCCCOc2ccc(C(=N)N)cc2)cc1 [PENTAMIDINE]
29.1 and 38.2	1.8 µM and 1.48 µM	1.13	11.9	4.26 µM	1.39 and 1.38				N=C(N)c1ccc(OC/C=C\COc2ccc(C(=N)N)cc2)cc1
28.8 and 35	2.64 µM and 3.01 µM	0.99	10.2	5.18 µM	1.11 and 1.36				N=C(N)c1ccc(OCCCCOc2ccc(C(=N)N)cc2)cc1
21.7 and 27.8	2.48 µM and 1.94 µM	0.71	9.5	3.81 µM	0.98 and 0.88				N=C(N)c1ccc(OC/C=C/COc2ccc(C(=N)N)cc2)cc1
